# Reference: patent US8802723B2, “Metabolic syndrome-improving agent and medicine, supplement, functional food and food additive containing the same” (ARKRAY, Inc., priority 2005, dated 2014)
# Key:
# human PPARγ = biological target: T1, human PPARγ (Homo sapiens, UniProt P37231); experiment: PPARγ ligand activity, GAL4-hPPARγ luciferase reporter assay in CV-1 cells; type: cell-based; conditions: for PPARγ ligand activity: 24 h, relative to non-treatment control (DMSO) = 100, average ± standard error
# T1 construct: expressed in transfected cells; host or cells: CV-1 cells (African green monkey kidney)
# T1 sequence (P37231 204-505): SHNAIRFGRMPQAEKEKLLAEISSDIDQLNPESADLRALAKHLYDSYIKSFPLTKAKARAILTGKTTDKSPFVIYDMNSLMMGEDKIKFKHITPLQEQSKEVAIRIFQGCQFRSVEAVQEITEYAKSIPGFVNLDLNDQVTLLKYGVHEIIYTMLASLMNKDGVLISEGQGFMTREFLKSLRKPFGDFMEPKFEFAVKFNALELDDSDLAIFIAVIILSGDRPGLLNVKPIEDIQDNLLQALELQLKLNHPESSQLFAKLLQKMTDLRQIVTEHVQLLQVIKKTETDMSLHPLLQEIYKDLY
# Description: CV-1 cells (cultured cells derived from kidneys of male African green monkeys) were implanted on 24-well culture plates so as to be […] and cultured at 37° C. in 5% CO2 for 24 hours. As a medium, DMEM (Dulbecco's Modified Eagle Medium; manufactured by GIBCO) containing 10% FBS (fetal bovine serum) and a 10 mg/mL penicillin streptomycin solution was used. Using the Lipofectamine system (trade name; manufactured by Invitrogen Corporation), pM-hPPARγ and p4× UASg-tk-luc were transfected. The above-noted pM-hPPARγ was a chimeric protein-expression plasmid binding GAL4 gene (amino acid sequence 1-147) and human PPARγ ligand-binding site gene (amino acid sequence 204-505), whereas the above-noted p4× UASg-tk-luc was a reporter plasmid containing four copies of a responsive element (UAS) of GAL 4 upstream of a luciferase gene. About 24 hours after the transfection, samples of aurapten at respective concentrations (0.1, 1.0, 10, 50 and 100 μM) were added to the above-described media, followed by 24 hour incubation. The above-noted samples were prepared by dissolving aurapten in dimethyl sulfoxide (DMSO). Instead of the aurapten, DMSO was added to non-treated control media. After the incubation, measurement was made using a Dual-Luciferase Reporter Gene Assay system (trade name; manufactured by Promega Corporation).
# Similarly to the measurement group, as a control group, pM (a plasmid from which PPARγ ligand-binding site gene was removed) was used for measurement instead of pM-hPPARγ. For each sample, the ratio between average luminescence intensities of the measurement group and the control group (n=4) (measurement group/control group) was calculated, and an activity relative to the non-treatment control was determined as the PPARγ ligand activity of the sample.
# aP2 mRNA = aP2 mRNA expression in differentiated 3T3-L1 adipocytes (Light Cycler); type: cell-based; conditions: 3T3-L1, 7 days after differentiation induction, non-treatment control = 100, average ± standard error
# Description: Differentiation Induction Medium (0.25 μM DEX, 0.5 mM MIX, 10 μg/mL Insulin/10% FBS/DMEM)
# 55 mL of FBS (fetal bovine serum (manufactured by GIBCO)) was added to 500 mL of DMEM (manufactured by SIGMA) so as to prepare 10% FBS/DMEM. To this 10% FBS/DMEM, 138.75 μL of 1 mM DEX (dexamethasone)/DMSO (manufactured by Nacalai Tesque, Inc.) and 555 μL of 10 mg/mL insulin/PBS (manufactured by SIGMA) were added. Incidentally, the insulin/PBS was obtained by adding 1N HCl to PBS in advance so as to make the solution acidic enough to allow insulin dissolution and then dissolving insulin. […]
# Next, culture preadipocytes 3T-L1 were thawed, inoculated in a 100 mm dish and cultured until 3T3-L 1 cells reached about 80% confluence. […] 7 days after the initiation of the differentiation induction, mRNA was extracted using Sepasol(R)—RNA I super (manufactured by Nacalai Tesque, Inc.), and the mRNA expression amounts of 36B4, aP2 and adiponectin, which were indicators of an early period of adipocyte differentiation, were measured using Light Cycler™. Also, the medium 7 days after the differentiation induction was taken in an amount of 1 mL from each well, and the amount of adiponectin in the medium supernatant was measured using a mouse/rat adiponectin ELISA kit (trade name) (manufactured by Otsuka Pharmaceutical Co., Ltd.). […]
structure (smiles),measurement,setting,value
"CC(C)=CCC/C(C)=C/COc1ccc2ccc(=O)oc2c1 [Aurapten, aurapten]",effect on PPARγ activity (in words),"human PPARγ; 0.1-100 μM, increased along with the concentration",improved the activity of PPARγ
same,PPARγ ligand activity,human PPARγ; aurapten 0.1 μM,128 ± 8.5
same,PPARγ ligand activity,human PPARγ; aurapten 1.0 μM,113 ± 6.9
same,PPARγ ligand activity,human PPARγ; aurapten 10 μM,146 ± 17.0
same,PPARγ ligand activity,human PPARγ; aurapten 50 μM,245 ± 56.1
same,PPARγ ligand activity,human PPARγ; aurapten 100 μM,641 ± 84.2
same,aP2 mRNA expression amount (ratio to 36B4),aP2 mRNA; aurapten 1 μM,208.2 ± 23.4
same,aP2 mRNA expression amount (ratio to 36B4),aP2 mRNA; aurapten 5 μM,202.7 ± 19.3
